Columns and labels:
Assay type in all cases: functional
[1] = system: NCI/ADR-RES; assay: Antiproliferative activity against human NCI-ADR-RES cells assessed as inhibition of cell growth at 10 uM measured after 48 hrs by SRB assay relative to control; conditions: read-out: GI
[2] = system: CCRF-CEM; assay: Antiproliferative activity against human CCRF-CEM cells assessed as inhibition of cell growth measured after 48 hrs by SRB assay
[3] = system: SW-620; assay: Antiproliferative activity against human SW620 cells assessed as inhibition of cell growth measured after 48 hrs by SRB assay; conditions: SW-620, 48 h
[4] = system: UACC-62; assay: Antiproliferative activity against human UACC62 cells assessed as inhibition of cell growth measured after 48 hrs by SRB assay; conditions: UACC-62, 48 h
[5] = system: SF-539; assay: Antiproliferative activity against human SF539 cells assessed as inhibition of cell growth measured after 48 hrs by SRB assay; conditions: SF-539, 48 h
[6] = system: CAKI-1; assay: Antiproliferative activity against human CAKI-1 cells assessed as inhibition of cell growth measured after 48 hrs by SRB assay; conditions: CAKI-1, 48 h
[7] = system: A498; assay: Antiproliferative activity against human A498 cells assessed as inhibition of cell growth at 10 uM measured after 48 hrs by SRB assay relative to control; conditions: A498, 48 h, read-out: GI
[8] = system: UACC-62; assay: Antiproliferative activity against human UACC62 cells assessed as inhibition of cell growth at 10 uM measured after 48 hrs by SRB assay relative to control; conditions: UACC-62, 48 h, read-out: GI
[9] = system: OVCAR-8; assay: Antiproliferative activity against human OVCAR8 cells assessed as inhibition of cell growth at 10 uM measured after 48 hrs by SRB assay relative to control; conditions: OVCAR-8, 48 h, read-out: GI
[10] = system: OVCAR-3; assay: Antiproliferative activity against human OVCAR3 cells assessed as inhibition of cell growth measured after 48 hrs by SRB assay; conditions: OVCAR-3, 48 h
[11] = system: SK-OV-3; assay: Antiproliferative activity against human SKOV3 cells assessed as inhibition of cell growth measured after 48 hrs by SRB assay; conditions: SK-OV-3, 48 h
[12] = system: OVCAR-8; assay: Antiproliferative activity against human OVCAR8 cells assessed as inhibition of cell growth measured after 48 hrs by SRB assay; conditions: OVCAR-8, 48 h
[13] = system: RXF 393; assay: Antiproliferative activity against human RXF393 cells assessed as inhibition of cell growth at 10 uM measured after 48 hrs by SRB assay relative to control; conditions: RXF 393, 48 h, read-out: GI
[14] = system: NCI-H460; assay: Antiproliferative activity against human NCI-H460 cells assessed as inhibition of cell growth at 10 uM measured after 48 hrs by SRB assay relative to control; conditions: NCI-H460, 48 h, read-out: GI
[15] = system: PC-3; assay: Antiproliferative activity against human PC3 cells assessed as inhibition of cell growth at 10 uM measured after 48 hrs by SRB assay relative to control; conditions: PC-3, 48 h, read-out: GI
[16] = system: NCI/ADR-RES; assay: Antiproliferative activity against human NCI/ADR-RES cells assessed as inhibition of cell growth measured after 48 hrs by SRB assay
[17] = system: OVCAR-5; assay: Antiproliferative activity against human OVCAR5 cells assessed as inhibition of cell growth at 10 uM measured after 48 hrs by SRB assay relative to control; conditions: OVCAR-5, 48 h, read-out: GI
[18] = system: M14; assay: Antiproliferative activity against human M14 cells assessed as inhibition of cell growth at 10 uM measured after 48 hrs by SRB assay relative to control; conditions: M14, 48 h, read-out: GI
[19] = system: K562; assay: Antiproliferative activity against human K562 cells assessed as inhibition of cell growth at 10 uM measured after 48 hrs by SRB assay relative to control; conditions: K562, 48 h, read-out: GI
[20] = system: TK-10; assay: Antiproliferative activity against human TK10 cells assessed as inhibition of cell growth measured after 48 hrs by SRB assay; conditions: TK-10, 48 h
[21] = system: HOP-92; assay: Antiproliferative activity against human HOP92 cells assessed as inhibition of cell growth measured after 48 hrs by SRB assay; conditions: HOP-92, 48 h
[22] = system: OVCAR-4; assay: Antiproliferative activity against human OVCAR4 cells assessed as inhibition of cell growth measured after 48 hrs by SRB assay; conditions: OVCAR-4, 48 h
[23] = system: Malme-3M; assay: Antiproliferative activity against human MALME-3M cells assessed as inhibition of cell growth measured after 48 hrs by SRB assay
[24] = system: SF-268; assay: Antiproliferative activity against human SF268 cells assessed as inhibition of cell growth measured after 48 hrs by SRB assay; conditions: SF-268, 48 h
[25] = system: OVCAR-5; assay: Antiproliferative activity against human OVCAR5 cells assessed as inhibition of cell growth measured after 48 hrs by SRB assay; conditions: OVCAR-5, 48 h

COc1ccc2nc3c(cc2c1)C(=O)CC(c1ccccc1)C3 (stereo not drawn)
inhibition of growth at 10 µM [1]: 86.8% | GI50 [2]: 322 nM | GI50 [3]: 747 nM | GI50 [4]: 728 nM | GI50 [5]: 1150 nM | GI50 [6]: 525 nM | inhibition of growth at 10 µM [7]: 113% | inhibition of growth at 10 µM [8]: 63.1% | inhibition of growth at 10 µM [9]: 61% | GI50 [10]: 1230 nM | GI50 [11]: 2090 nM | GI50 [12]: 1060 nM | inhibition of growth at 10 µM [13]: 103% | inhibition of growth at 10 µM [14]: 91.2% | inhibition of growth at 10 µM [15]: 71.2% | GI50 [16]: 408 nM | inhibition of growth at 10 µM [17]: 38.8% | inhibition of growth at 10 µM [18]: 90.7% | inhibition of growth at 10 µM [19]: 86.8%

COc1ccc2nc3c(cc2c1)C(=O)CC(C(F)(F)F)C3 (stereo not drawn)
inhibition of growth at 10 µM [1]: 81.1% | GI50 [2]: 238 nM | GI50 [3]: 3450 nM | GI50 [4]: 697 nM | GI50 [5]: 1890 nM | GI50 [6]: 690 nM | inhibition of growth at 10 µM [7]: 108% | inhibition of growth at 10 µM [8]: 60.2% | inhibition of growth at 10 µM [9]: 60% | GI50 [10]: 1830 nM | GI50 [12]: 2040 nM | inhibition of growth at 10 µM [13]: 102% | inhibition of growth at 10 µM [14]: 89.5% | inhibition of growth at 10 µM [15]: 67% | GI50 [16]: 336 nM | inhibition of growth at 10 µM [17]: 42.3% | inhibition of growth at 10 µM [18]: 91.3% | inhibition of growth at 10 µM [19]: 83.2%

O=C1CC(c2ccccc2)Cc2nc3c(Br)cc(Br)cc3cc21 (stereo not drawn)
inhibition of growth at 10 µM [1]: 113% | GI50 [2]: 88.9 nM | GI50 [3]: 83.9 nM | GI50 [4]: 338 nM | GI50 [20]: 700 nM | GI50 [5]: 192 nM | GI50 [6]: 145 nM | GI50 [21]: 66.8 nM | inhibition of growth at 10 µM [8]: 61.7% | GI50 [22]: 1410 nM | GI50 [23]: 119 nM | inhibition of growth at 10 µM [9]: 96% | GI50 [10]: 30.2 nM | GI50 [11]: 102 nM | GI50 [12]: 507 nM | inhibition of growth at 10 µM [13]: 70% | inhibition of growth at 10 µM [14]: 97.7% | inhibition of growth at 10 µM [15]: 77.4% | GI50 [24]: 167 nM | GI50 [25]: 461 nM | GI50 [16]: 236 nM | inhibition of growth at 10 µM [17]: 52.9% | inhibition of growth at 10 µM [18]: 94.7% | inhibition of growth at 10 µM [19]: 86.8%

O=C1CC(c2ccccc2)Cc2nc3ccc(Br)cc3cc21 (stereo not drawn)
inhibition of growth at 10 µM [1]: 82.9% | GI50 [2]: 49.8 nM | GI50 [3]: 360 nM | GI50 [4]: 444 nM | GI50 [5]: 241 nM | GI50 [6]: 207 nM | inhibition of growth at 10 µM [7]: 112% | inhibition of growth at 10 µM [8]: 63.8% | GI50 [23]: 94.9 nM | inhibition of growth at 10 µM [9]: 75.9% | GI50 [10]: 289 nM | GI50 [11]: 611 nM | GI50 [12]: 461 nM | inhibition of growth at 10 µM [13]: 71.6% | inhibition of growth at 10 µM [14]: 95.4% | inhibition of growth at 10 µM [15]: 68% | GI50 [24]: 3450 nM | GI50 [25]: 825 nM | GI50 [16]: 66.9 nM | inhibition of growth at 10 µM [17]: 72.8% | inhibition of growth at 10 µM [18]: 89.8% | inhibition of growth at 10 µM [19]: 93.9%

O=C1CC(c2ccccc2)Cc2nc3ccc(Cl)cc3cc21 (stereo not drawn)
inhibition of growth at 10 µM [1]: 92% | GI50 [2]: 40 nM | GI50 [3]: 370 nM | GI50 [4]: 333 nM | GI50 [5]: 219 nM | GI50 [6]: 151 nM | inhibition of growth at 10 µM [7]: 117% | inhibition of growth at 10 µM [8]: 70.7% | inhibition of growth at 10 µM [9]: 77.6% | GI50 [10]: 302 nM | GI50 [11]: 845 nM | GI50 [12]: 534 nM | inhibition of growth at 10 µM [13]: 78.2% | inhibition of growth at 10 µM [14]: 96.7% | inhibition of growth at 10 µM [15]: 72.3% | GI50 [25]: 1020 nM | GI50 [16]: 64.4 nM | inhibition of growth at 10 µM [17]: 73.6% | inhibition of growth at 10 µM [18]: 91% | inhibition of growth at 10 µM [19]: 79.3%

From ChEMBL document CHEMBL4627344, “Synthesis, biological evaluation and virtual screening of some acridone derivatives as potential anticancer agents” (2020)
